Like-named read-outs stand apart in the source and are kept apart here.
Key:
[1] = tested on: cytokinin-dependent tobacco callus Nicotiana tabacum L. cv. Wisconsin 38; experiment: Plant cell division: growth of cytokinin-dependent tobacco callus; type: cell-based; details: for Activity (%); (s.d.): relative activity at concentration with highest activity, 10^−6 M kinetin set at 100%; for Concentration with highest activity (mol/l): tobacco callus fresh weight increase after four weeks, tested 10^−8 M to 10^−4 M
Method: Cytokinin-dependent tobacco callus Nicotiana tabacum L. cv. Wisconsin 38 was maintained at 25° C. in darkness on modified MS medium, containing 4 μmol/l nicotinic acid, 2.4 μmol/l pyridoxine hydrochloride, 1.2 μmol/l thiamine, 26.6 μmol/l glycine, 1.37 μmol/l glutamine, 1.8 μmol/l myo-inositol, 30 g/l of sucrose, 8 g/l of agar, 5.37 μmol/l NAA and 0.5 μmol/l BAP. Subcultivation was carried out every three weeks. Fourteen days before the bioassay, the callus tissue was transferred to the media without BAP. Biological activity was determined from the increase in fresh callus weight after four weeks of cultivation. Five replicates were prepared for each cytokinin concentration and the entire test was repeated twice. From the obtained data, the concentration with highest activity was selected for each compound tested. Relative activity at this concentration was calculated (see Table 17 below). The activity obtained for 10^−6 M kinetin (Kin) was set as 100%.
The cytokinins to be tested were dissolved in dimethylsulfoxide (DMSO) and the solution brought up to 10^−3M with distilled water.

[2] = tested on: normal diploid fibroblasts BJ; experiment: In vitro cytotoxic activity (Calcein AM), BJ; type: cell-based, human; details: 72 hours, read-out: Cell line tested/IC50 (μmol/L) BJ
Description: (§1) Because toxic compounds negatively influence metabolic processes of cells, many standard cytotoxicity assays are based on measurement of metabolisation rate of various artificial substrates. Resulting product is then quantified, for example, by means of spectrometry. The assays can be easily modified for use in 96-well plates. For evaluation of cytotoxicity of the […] of this invention, a microtiter assay based on quantification of metabolisation of Calcein AM was used. The assay is widely used in drug screening programs and in chemosensitivity testing. In live cells, Calcein AM is enzymatically hydrolysed and accumulation of resulting calcein is manifested by green fluorescence.
(§2) The following human cell lines were used for routine screening of the compounds: normal diploid fibroblasts BJ, T-lymphoblastic leukemia cell line CEM, promyelocytic leukemia cell line HL-60, erytroid leukemia cell line K-562, breast carcinoma cell line MCF-7, osteosarcoma cell line HOS and melanoma cell line G-361. The cells were maintained in Nunc/Corning 80 cm^2 plastic tissue culture flasks and cultured in cell culture medium (DMEM with 5 g/l glucose, 2 mM glutamine, 100 U/ml penicillin, 100 mmg/ml streptomycin, 10% fetal calf serum and sodium bicarbonate). The cell suspensions were prepared and diluted according to the particular cell type and the expected target cell density (2.500-30.000 cells per well based on cell growth characteristics) and pipetted (80 μl) into 96-well plates. Inoculates were allowed a pre-incubation period of 24 hours at 37° C. and 5% CO2 for stabilization. Tested compound was added in total volume of 20 μl of water at time zero. Usually, test compound was evaluated at six 3-fold dilutions. In routine testing, the highest concentration tested was 100 μM, but it could have been adjusted because of limited solubility of a compound. All drug concentrations were tested in triplicates.
(§3) Incubations of cells with the test compounds lasted for 72 hours at 37° C., in 5% CO2 atmosphere and 100% humidity. At the end of incubation period Calcein AM in PBS was added into final concentration of 1 μg/ml. After another 1 hour of incubation fluorescence (FD) was measured with the Labsystem FIA Reader Fluoroscan Ascent (UK). Growth inhibition (GI) was estimated using the following equitation: GI=(mean FDdrug exposed wells−mean FDblank)/(mean FDcontrol wells−mean FDblank)×100%. The GI50 value, the drug concentration causing 50% reduction of Calcein AM conversion, was calculated from the obtained dose response curves.

[3] = tested on: T-lymphoblastic leukemia cell line CEM; experiment: In vitro cytotoxic activity (Calcein AM), CEM; type: cell-based, human; details: 72 hours, read-out: Cell line tested/IC50 (μmol/L) CEM
Description: as §1, §2, §3

[4] = tested on: erytroid leukemia cell line K-562; experiment: In vitro cytotoxic activity (Calcein AM), K-562; type: cell-based, human; details: read-out: Cell line tested/IC50 (μmol/L) K-562
Description: as §1, §2, §3

[5] = tested on: breast carcinoma cell line MCF-7; experiment: In vitro cytotoxic activity (Calcein AM), MCF-7; type: cell-based, human; details: read-out: Cell line tested/IC50 (μmol/L) MCF7
Description: as §1, §2, §3

[6] = tested on: osteosarcoma cell line HOS; experiment: In vitro cytotoxic activity (Calcein AM), HOS; type: cell-based, human; details: 72 hours, read-out: Cell line tested/IC50 (μmol/L) HOS
Description: as §1, §2, §3

melanoma cell line G-361 = experiment: In vitro cytotoxic activity (Calcein AM), G-361; type: cell-based, human; details: read-out: Cell line tested/IC50 (μmol/L) G-361
Description: as §1, §2, §3

[7] = tested on: Human diploid fibroblast BJ; experiment: In vitro cytotoxic activity (MTT); type: cell-based; details: 72 hours incubation; concentration causing 20% decrease in mitochondrial dehydrogenase activity
Method: MTT (metabolic tetrazolium toxicity) assay is a standard colorimetric assay for evaluation of cytotoxicity. Mitochondrial dehydrogenase activity converts yellow MTT into violet formazan which is measured by means of spectrometry.
Human diploid fibroblast BJ (passage 18-22) were seeded into 96-well plate (5.000 cells per well). After 6 hours cultivation medium (DMEM with 5 g/l glucose, 2 mM glutamine, 100 U/ml penicillin, 100 mmg/ml streptomycin, 10% fetal calf serum and sodium bicarbonate) was replaced with the cultivation medium containing test compounds in concentration range of 0-200 µM. Highest concentration was adjusted if the solubility of the compound was limiting. Every concentration was tested in pentaplicate. MTT was added to the cells after 72 hours incubation (final concentration 0.5 mg/ml) and incubation continued for another 3 hours. MTT was solubilised by DMSO and absorbance at 570 nm was measured. Growth inhibition (GI) was estimated using the following equitation: GI=(mean A drug exposed wells−mean Ablank/mean Acontrol wells−mean Ablank)×100%. The GI20 value, the drug concentration causing 20% decrease in mitochondrial dehydrogenase activity, was calculated from the obtained dose response curves.

[8] = tested on: Salmonella typhimurium histidien auxotrophs TA98 and TA100; experiment: Ames test; type: cell-based; details: 2.5 to 5000 μg/plate; presence and absence of Aroclor-induced rat liver S9
Method: A number of tests related to the safety of have been carried out using conventionally accepted protocols and procedures. The results of these studies are summarized herein. Tests were carried out using DMSO as solvent and dose levels of compound 21, 24, 26, 27, 39, 41, 45, 48, 50, 52, 53, 54, 55, 56, 63, 64, 66, 67, 68, 69, 70, 71, 72, 74, 76, 124, 125, 126, 127, 128, 129, 130, 145, 146, 147, 149, 150, 151, 208, 216, 218 a 243 at 2.5, 5.0, 15, 50, 500, 1500, and 5000 μg/plate based upon standard protocol and procedures (Ames et al., Mutation Research, 31, 347-364 (1975); Maron et al., Mutation Research, 113, 173-215 (1983)).

Row | SMILES | Activity (%); (s.d.) [1] | Concentration with highest activity (mol/l) [1] | IC50 [2] | IC50 [3] | IC50 ([4]; 72 hours) | IC50 ([5]; 72 hours) | IC50 [6] | IC50 (melanoma cell line G-361; 72 hours) | GI20 [7] | mutagenic response [8] | IC50 ([2]; Homo sapiens, Fibroblast) | IC50 ([3]; Homo sapiens) | IC50 ([4]; Homo sapiens, K562, 72 hours) | IC50 ([5]; Homo sapiens, MCF7, 72 hours) | IC50 ([6]; Homo sapiens) | IC50 (melanoma cell line G-361; Homo sapiens, G-361, 72 hours)
1 | CC(C)=CCNc1ncnc2c1nc(Cl)n2C1CCCO1 (centres unmarked) [Compound 65] | 127 (±9) % | 10^−6-10^−4 mol/l | > 50 µmol/L | > 50 µmol/L | > 50 µmol/L | > 50 µmol/L | > 50 µmol/L | > 50 µmol/L | >100 µmol/L | – | – | – | – | – | – | –
2 | COc1nc2c(NCc3ccccc3)ncnc2n1C1CCCCO1 (centres unmarked) [Compound 125] | 104 (±2) % | 10^−6-10^−4 mol/l | > 50 µmol/L | > 50 µmol/L | > 50 µmol/L | > 50 µmol/L | > 50 µmol/L | > 50 µmol/L | >100 µmol/L | no positive mutagenic responses | – | – | – | – | – | –
3 | COc1nc2c(NCc3cccc(F)c3)ncnc2n1C1CCCCO1 (centres unmarked) [Compound 130] | 108 (±3) % | 10^−6-10^−4 mol/l | > 50 µmol/L | > 50 µmol/L | > 50 µmol/L | > 50 µmol/L | > 50 µmol/L | > 50 µmol/L | >100 µmol/L | no positive mutagenic responses | – | – | – | – | – | –
4 | CSc1nc2c(NCC=C(C)C)ncnc2n1C1CCCO1 (centres unmarked) [Compound 218] | 113 (±5) % | 10^−6-10^−4 mol/l | > 50 µmol/L | > 50 µmol/L | > 50 µmol/L | > 50 µmol/L | > 50 µmol/L | > 50 µmol/L | >100 µmol/L | no positive mutagenic responses | – | – | – | – | – | –
5 | CSc1nc2c(NCc3ccco3)ncnc2n1C1CCCO1 (centres unmarked) [Compound 216] | 103 (±4) % | 10^−6-10^−4 mol/l | > 50 µmol/L | > 50 µmol/L | > 50 µmol/L | > 50 µmol/L | > 50 µmol/L | > 50 µmol/L | >100 µmol/L | no positive mutagenic responses | – | – | – | – | – | –
6 | CSc1nc2c(NCc3cccc(F)c3)ncnc2n1C1CCCCO1 (centres unmarked) [Compound 151] | 109 (±5) % | 10^−6-10^−4 mol/l | > 50 µmol/L | > 50 µmol/L | > 50 µmol/L | > 50 µmol/L | > 50 µmol/L | > 50 µmol/L | >100 µmol/L | no positive mutagenic responses | – | – | – | – | – | –
7 | COc1nc2c(NCC=C(C)C)ncnc2n1C1CCCCO1 (centres unmarked) [Compound 127, 8-Methoxy-6-(3-methylbut-2-en-1-ylamino)-9-(tetrahydropyran-2-yl)-9H-purine] | 114 (±6) % | – | – | – | – | – | – | – | >100 µmol/L | no positive mutagenic responses | > 50 µmol/L | > 50 µmol/L | > 50 µmol/L | > 50 µmol/L | > 50 µmol/L | > 50 µmol/L
8 | CSc1nc2c(NC/C=C(\C)CO)ncnc2n1C1CCCCO1 (centres unmarked) [Compound 146] | 108 (±5) % | 10^−6-10^−5 mol/l | > 50 µmol/L | > 50 µmol/L | > 50 µmol/L | > 50 µmol/L | > 50 µmol/L | > 50 µmol/L | >100 µmol/L | no positive mutagenic responses | – | – | – | – | – | –
9 | COc1cccc(CNc2ncnc3c2nc(OC)n3C2CCCCO2)c1 (centres unmarked) [Compound 128] | 121 (±5) % | 10^−6-10^−5 mol/l | > 50 µmol/L | > 50 µmol/L | > 50 µmol/L | > 50 µmol/L | > 50 µmol/L | > 50 µmol/L | >100 µmol/L | no positive mutagenic responses | – | – | – | – | – | –
10 | COc1nc2c(NCC=C(C)C)ncnc2n1C1CCCO1 (centres unmarked) [Compound 207] | 114 (±3) % | 10^−6-10^−4 mol/l | > 50 µmol/L | > 50 µmol/L | > 50 µmol/L | > 50 µmol/L | > 50 µmol/L | > 50 µmol/L | >100 µmol/L | – | – | – | – | – | – | –
11 | CC(C)=CCNc1ncnc2c1nc(Cl)n2C1CCCCO1 (centres unmarked) [Compound 3, 8-Chloro-6-(3-methylbut-2-en-1-ylamino)-9-(tetrahydropyran-2-yl)-9H-purine] | 118 (±6) % | – | – | – | – | – | – | – | >50 µmol/L | – | > 50 µmol/L | > 50 µmol/L | > 50 µmol/L | > 50 µmol/L | > 50 µmol/L | > 50 µmol/L
12 | CC(C)=CCNc1ncnc2c1nc(Br)n2C1CCCCO1 (centres unmarked) [Compound 23, 8-Bromo-6-(3-methylbut-2-en-1-ylamino)-9-(tetrahydropyran-2-yl)-9H-purine] | 125 (±7) % | – | – | – | – | – | – | – | >100 µmol/L | – | > 50 µmol/L | > 50 µmol/L | > 50 µmol/L | > 50 µmol/L | > 50 µmol/L | > 50 µmol/L
13 | COc1cccc(CNc2ncnc3c2nc(OC)n3C2CCCO2)c1 (centres unmarked) [Compound 209] | 112 (±4) % | 10^−6-10^−4 mol/l | > 50 µmol/L | > 50 µmol/L | > 50 µmol/L | > 50 µmol/L | > 50 µmol/L | > 50 µmol/L | >100 µmol/L | – | – | – | – | – | – | –
